Experimental data reported in ChEMBL document CHEMBL3885861, “Open TG-GATES”.

Species: Rattus norvegicus
Test: Open TG-GATES - Regimen: Single
Assay type: toxicity, organism-based, Sprague-Dawley
Design: regimen Single, gender Male, age 6 weeks
Conditions: in vivo, po, route gavage; for Eos / Fbg / Hb / Ht / Lym / MCH / MCHC / MCV / Mono / Neu / PT / Plat / RBC / Ret / WBC / APTT / Bas: tissue Blood; for KIDNEY_L / KIDNEY_R / KIDNEY_TOTAL: tissue Kidney; for LIVER: tissue Liver; for A/G / ALP / ALT / AST / BUN / CRE / Ca / Cl / DBIL / GLC / IP / K / LDH / Na / PL / RALB / TBIL / TC / TG / TP / gamma-GTP: tissue Plasma
[1] = 30 mg/kg, 3 h, dose level Middle
[2] = 30 mg/kg, 6 h, dose level Middle
[3] = 30 mg/kg, 9 h, dose level Middle

`O=C1CN(/N=C/c2ccc([N+](=O)[O-])o2)C(=O)N1` [NITROFURANTOIN] gave an Eos (10 mg/kg, 24 h, dose level Low) of 1%, a Fbg (10 mg/kg, 24 h, dose level Low) of 212.8 mg/dL and a Hb (10 mg/kg, 24 h, dose level Low) of 13.1 g/dL. For the same compound, the Ht (10 mg/kg, 24 h, dose level Low) was 37.6%, the Lym (10 mg/kg, 24 h, dose level Low) was 80.2% and the MCH (10 mg/kg, 24 h, dose level Low) was 21.9 pg. For the same compound, the MCHC (10 mg/kg, 24 h, dose level Low) was 34.9%, the MCV (10 mg/kg, 24 h, dose level Low) was 62.7 fL and the Mono (10 mg/kg, 24 h, dose level Low) was 2.2%. The Neu (10 mg/kg, 24 h, dose level Low) was 15.4%, the PT (10 mg/kg, 24 h, dose level Low) was 12.6 s and the Plat (10 mg/kg, 24 h, dose level Low) was 126.9 x10_4/uL. For the same compound, the RBC (10 mg/kg, 24 h, dose level Low) was 599.6 x10_4/ul, the Ret (10 mg/kg, 24 h, dose level Low) was 7% and the WBC (10 mg/kg, 24 h, dose level Low) was 79.2 x10_2/uL. For the same compound, the KIDNEY_L (10 mg/kg, 24 h, dose level Low) was 1.1 g, the KIDNEY_R (10 mg/kg, 24 h, dose level Low) was 1.1 g and the KIDNEY_TOTAL (10 mg/kg, 24 h, dose level Low) was 2.1 g. The LIVER (10 mg/kg, 24 h, dose level Low) was 11.3 g, the A/G (10 mg/kg, 24 h, dose level Low) was 1.6 and the ALP (10 mg/kg, 24 h, dose level Low) was 999.6 IU/L. It also gave an ALT (10 mg/kg, 24 h, dose level Low) of 38.4 IU/L, an AST (10 mg/kg, 24 h, dose level Low) of 63.4 IU/L and a BUN (10 mg/kg, 24 h, dose level Low) of 16.8 mg/dL. It also gave a CRE (10 mg/kg, 24 h, dose level Low) of 0.4 mg/dL, a Ca (10 mg/kg, 24 h, dose level Low) of 10.9 mg/dL and a Cl (10 mg/kg, 24 h, dose level Low) of 101.8 meq/L. It also gave a DBIL (10 mg/kg, 24 h, dose level Low) of 0.1 mg/dL, a GLC (10 mg/kg, 24 h, dose level Low) of 211.6 mg/dL and an IP (10 mg/kg, 24 h, dose level Low) of 7.1 mg/dL. It also gave a K (10 mg/kg, 24 h, dose level Low) of 4.3 meq/L, an LDH (10 mg/kg, 24 h, dose level Low) of 168.2 IU/L and a Na (10 mg/kg, 24 h, dose level Low) of 139.4 meq/L. It also gave a PL (10 mg/kg, 24 h, dose level Low) of 151.6 mg/dL, an RALB (10 mg/kg, 24 h, dose level Low) of 3.3 g/dL and a TBIL (10 mg/kg, 24 h, dose level Low) of 0.2 mg/dL. It also gave a TC (10 mg/kg, 24 h, dose level Low) of 78.8 mg/dL, a TG (10 mg/kg, 24 h, dose level Low) of 105.8 mg/dL and a TP (10 mg/kg, 24 h, dose level Low) of 5.4 g/dL. For the same compound, the gamma-GTP (10 mg/kg, 24 h, dose level Low) was 0.8 IU/L, the TERMINAL_BW [1] was 218.7 g and the APTT [1] was 18.8 s. For the same compound, the Bas [1] was 0%, the Eos [1] was 1.2% and the Fbg [1] was 219.2 mg/dL. It also gave a Hb [1] of 13.8 g/dL, a Ht [1] of 39.3% and a Lym [1] of 79%. For the same compound, the MCH [1] was 21.6 pg, the MCHC [1] was 35.2% and the MCV [1] was 61.4 fL. The Mono [1] was 2%, the Neu [1] was 16.8% and the PT [1] was 12.6 s. For the same compound, the Plat [1] was 113.7 x10_4/uL, the RBC [1] was 642 x10_4/ul and the Ret [1] was 7.5%. For the same compound, the WBC [1] was 82.7 x10_2/uL, the KIDNEY_L [1] was 1 g and the KIDNEY_R [1] was 1 g. It also gave a KIDNEY_TOTAL [1] of 2 g, an LIVER [1] of 10.8 g and an A/G [1] of 1.5. It also gave an ALP [1] of 1203 IU/L, an ALT [1] of 37.6 IU/L and an AST [1] of 66.6 IU/L. It also gave a BUN [1] of 12.8 mg/dL, a CRE [1] of 0.4 mg/dL and a Ca [1] of 10.6 mg/dL. For the same compound, the Cl [1] was 101.4 meq/L, the DBIL [1] was 0.074 mg/dL and the GLC [1] was 194.6 mg/dL. It also gave an IP [1] of 9 mg/dL, a K [1] of 4 meq/L and an LDH [1] of 180 IU/L. For the same compound, the Na [1] was 140.6 meq/L, the PL [1] was 136 mg/dL and the RALB [1] was 3.3 g/dL. The TBIL [1] was 0.1 mg/dL, the TC [1] was 74.6 mg/dL and the TG [1] was 62.2 mg/dL. The TP [1] was 5.5 g/dL, the gamma-GTP [1] was 0.8 IU/L and the TERMINAL_BW [2] was 219.6 g. For the same compound, the APTT [2] was 19 s, the Bas [2] was 0% and the Eos [2] was 1%. For the same compound, the Fbg [2] was 219 mg/dL, the Hb [2] was 13.3 g/dL and the Ht [2] was 37.6%. For the same compound, the Lym [2] was 75%, the MCH [2] was 21.5 pg and the MCHC [2] was 35.3%. It also gave an MCV [2] of 61 fL, a Mono [2] of 2.6% and a Neu [2] of 20%. The PT [2] was 12.7 s, the Plat [2] was 115.2 x10_4/uL and the RBC [2] was 616.2 x10_4/ul. It also gave a Ret [2] of 7.6%, a WBC [2] of 82.3 x10_2/uL and a KIDNEY_L [2] of 1 g. It also gave a KIDNEY_R [2] of 1 g, a KIDNEY_TOTAL [2] of 2 g and an LIVER [2] of 9.8 g. It also gave an A/G [2] of 1.6, an ALP [2] of 861.8 IU/L and an ALT [2] of 31 IU/L. It also gave an AST [2] of 58.8 IU/L, a BUN [2] of 11 mg/dL and a CRE [2] of 0.4 mg/dL. For the same compound, the Ca [2] was 10.6 mg/dL, the Cl [2] was 103.2 meq/L and the DBIL [2] was 0.072 mg/dL. For the same compound, the GLC [2] was 191 mg/dL, the IP [2] was 9.2 mg/dL and the K [2] was 4.1 meq/L. For the same compound, the LDH [2] was 168.6 IU/L, the Na [2] was 140.8 meq/L and the PL [2] was 132 mg/dL. For the same compound, the RALB [2] was 3.3 g/dL, the TBIL [2] was 0.1 mg/dL and the TC [2] was 73.4 mg/dL. For the same compound, the TG [2] was 64 mg/dL, the TP [2] was 5.4 g/dL and the gamma-GTP [2] was 0.8 IU/L. It also gave a TERMINAL_BW [3] of 216.9 g, an APTT [3] of 18.6 s and a Bas [3] of 0%. It also gave an Eos [3] of 0.8%, a Fbg [3] of 213.4 mg/dL and a Hb [3] of 13.3 g/dL. The Ht [3] was 38%, the Lym [3] was 79.6% and the MCH [3] was 21.9 pg. The MCHC [3] was 35.1%, the MCV [3] was 62.3 fL and the Mono [3] was 3.2%. For the same compound, the Neu [3] was 14.8%, the PT [3] was 12.9 s and the Plat [3] was 107.6 x10_4/uL. For the same compound, the RBC [3] was 609.8 x10_4/ul, the Ret [3] was 7.5% and the WBC [3] was 96.9 x10_2/uL. For the same compound, the KIDNEY_L [3] was 1 g, the KIDNEY_R [3] was 1 g and the KIDNEY_TOTAL [3] was 2 g. It also gave an LIVER [3] of 9.5 g.
